Results on 7 molecules are retold here after US8883846B2, “Synthesis of bicyclic compounds and method for their use as therapeutic agents” (priority 2010, dated 2014).

Assay [1] addresses recombinant H1N1 neuraminidase (Influenza A virus (strain A/Puerto Rico/8/1934 H1N1), UniProt P03468). Kind of assay: biochemical. It counts as biochemical.
Assay [2] has as its target neuraminidase of NP40-inactivated influenza A/Brisbane/59/2007(H1N1) (Influenza A virus, UniProt D5F1R0). Kind of assay: In vitro neuraminidase assay vs. NP40-inactivated influenza virus. Format: biochemical.
A further assay concerns neuraminidase. The note with it: background statement; cited from earlier work.
Where [3] appears, read: NP40-inactivated influenza A/Brisbane/59/2007(H1N1), read-out: IC50.
The mark [4] stands for this setting: NP40-inactivated virus, Lineweaver-Burk analysis.

Where “and” joins values, the source holds several entries; their conditions need not be identical. Equal entries are not always repeated. Where two headings read alike, the source gives them in different places. Some results are limits rather than exact numbers.

neuraminidase of NP40-inactivated influenza A/Brisbane/59/2007(H1N1), sequence (D5F1R0 1-470): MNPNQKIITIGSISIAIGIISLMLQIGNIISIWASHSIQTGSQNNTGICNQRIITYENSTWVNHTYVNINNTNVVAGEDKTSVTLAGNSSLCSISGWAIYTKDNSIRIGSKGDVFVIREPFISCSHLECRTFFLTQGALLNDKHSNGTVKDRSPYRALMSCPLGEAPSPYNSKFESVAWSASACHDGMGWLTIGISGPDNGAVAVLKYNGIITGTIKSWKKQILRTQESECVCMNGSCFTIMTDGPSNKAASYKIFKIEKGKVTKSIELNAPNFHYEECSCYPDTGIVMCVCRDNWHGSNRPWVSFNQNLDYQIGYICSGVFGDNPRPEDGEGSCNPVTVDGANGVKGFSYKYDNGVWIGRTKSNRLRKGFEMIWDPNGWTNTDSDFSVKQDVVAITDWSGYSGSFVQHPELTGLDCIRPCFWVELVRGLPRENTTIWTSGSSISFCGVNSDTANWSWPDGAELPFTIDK
recombinant H1N1 neuraminidase, sequence (P03468 36-454 limits assumed): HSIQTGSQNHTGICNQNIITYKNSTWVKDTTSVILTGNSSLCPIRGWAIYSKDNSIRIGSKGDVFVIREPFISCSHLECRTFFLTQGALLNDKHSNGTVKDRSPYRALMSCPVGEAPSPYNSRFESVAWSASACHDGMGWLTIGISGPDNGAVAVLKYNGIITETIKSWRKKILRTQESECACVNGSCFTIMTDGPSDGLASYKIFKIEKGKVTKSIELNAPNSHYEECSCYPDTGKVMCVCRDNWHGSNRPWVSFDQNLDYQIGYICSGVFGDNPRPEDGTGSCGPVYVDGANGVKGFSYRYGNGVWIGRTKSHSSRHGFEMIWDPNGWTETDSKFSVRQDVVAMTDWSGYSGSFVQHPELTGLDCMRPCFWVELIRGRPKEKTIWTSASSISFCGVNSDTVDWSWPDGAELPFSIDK

On to `C[C@@H]1C[C@](O)(C(=O)O)[C@H]2CCS(=O)(=O)[C@@H]12` [Compound 20], for which, in assay [1], the IC50 amounted to 4000 µM, the “Inhibition Mode” value is “mixed” and the “inhibition of commercially available recombinant H1N1 neuraminidase” value is listed as “dose-dependent inhibition”.
Consider `C[C@@H]1C[C@](O)(C(=O)O)[C@H]2C[C@H](Cc3ccccc3)S(=O)(=O)[C@@H]12` [Compound 21], for which, in assay [1], the IC50 was above 10000 µM.
Turning to `N=C(N)N[C@@H]1C[C@](O)(C(=O)O)[C@H]2CCS(=O)(=O)[C@@H]12` [Compound 27], in assay [2] (setting [3]), the IC50 is 3700 µM and 3800 µM. Besides, the “Inhibition Mode” value in assay [2] (setting [4]) was “competitive”. Also, the Ki in assay [2] (NP40-inactivated virus, estimated from Km versus inhibitor concentration, read-out: Ki) was 1000 µM.
Turning to `CC(=O)N[C@H]1CS(=O)(=O)[C@H]2[C@@H]1[C@H](N)C[C@@H]2C(=O)O` [Compound 31], the IC50 in assay [2] (setting [3]) was found to be 92 µM. Also, the “Inhibition Mode” value in assay [2] (setting [4]) is reported as “competitive”.
For the molecule `CC(=O)N[C@H]1CS(=O)(=O)[C@H]2[C@@H]1[C@H](NC(=N)N)C[C@@H]2C(=O)O` [Compound 32], in assay [2], the “Inhibition Mode” value is given as “competitive” and the Ki came to 5 µM. In assay [2] (IC50), this molecule returned an IC50 of 30 µM.
Turning to `CCOC(=O)C1=C[C@@H](OC(CC)CC)[C@H](NC(C)=O)[C@@H](N)C1` [oseltamivir], the “effective concentration as neuraminidase inhibitor” value with neuraminidase is listed as “around 1 nM”.
For the molecule `CCC(CC)[C@H](NC(C)=O)[C@@H]1[C@H](O)[C@@H](C(=O)O)C[C@H]1N=C(N)N` [peramivir], the “potency relative to oseltamivir” value in the assay on neuraminidase is recorded as “roughly ten-fold”.

Broadly, the IC50 is the concentration needed to halve the response being measured.
